# In publication PMC10945332, “Precision peptide theranostics: developing N- to C-terminus optimized theranostics targeting cholecystokinin-2 receptor” (Theranostics, 2024):
# Where two headings read alike, the source gives them in different places. Where a SMILES comes first, the peptide text is derived from it. [ ]: non-standard residue; d: D form. The star is where a group is joined. DOTA = O=C(O)CN1CCN(CC(=O)O)CCN(CC(=O)*)CCN(CC(=O)O)CC1; 1Nal = N[C@@H](Cc1cccc2ccccc12)C(=O)O; NMeF = CN[C@@H](Cc1ccccc1)C(=O)O; NMeNle = CCCC[C@H](NC)C(=O)O; Sar = CNCC(=O)O
# How the values were obtained:
# CCK2R = test system: CCK2R; set-up: method as in PMID 33826325; conditions: cited from earlier work
# human CCK2R = biological target: T1, human CCK2R (Homo sapiens, UniProt P32239); test: Competitive binding against [177Lu]Lu-DOTA-CP04 in A431-CCK2R cells; conditions: linear peptide vs its Ga-DOTA form
# T1 construct: stably transfected to over-express the human full-length CCK2R (A431-CCK2R); expressed in transfected cells
# T1 sequence (P32239 1-447): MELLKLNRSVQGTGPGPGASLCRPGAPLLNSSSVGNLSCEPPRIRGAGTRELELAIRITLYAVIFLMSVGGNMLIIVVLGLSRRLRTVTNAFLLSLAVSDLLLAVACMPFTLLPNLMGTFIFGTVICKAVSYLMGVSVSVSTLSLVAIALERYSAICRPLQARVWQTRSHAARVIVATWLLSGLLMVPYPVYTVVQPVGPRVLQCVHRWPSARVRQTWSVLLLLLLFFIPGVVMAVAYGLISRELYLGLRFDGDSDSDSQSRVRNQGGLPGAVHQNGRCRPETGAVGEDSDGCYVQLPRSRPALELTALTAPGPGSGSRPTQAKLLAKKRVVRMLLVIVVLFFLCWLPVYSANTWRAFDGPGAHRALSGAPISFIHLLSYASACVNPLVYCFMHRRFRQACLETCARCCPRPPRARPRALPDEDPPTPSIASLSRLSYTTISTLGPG
# Experimental: Materials and Methods: Biology […]
# In Vitro CCK2R-Ligand Competitive Binding Assays
# All CCK2R binding experiments were conducted using A431 (human epidermoid carcinoma) […]
# cells stably transfected to over-express the human full-length CCK2R (A431-CCK2R) (gifted […]
# by Dr. Elisabeth von Guggenberg, Medizinische Universität Innsbruck).[41] As a negative […]
# control, A431 cells stably transfected with an empty vector were analysed simultaneously […]
# (A431-EV). All A431 cells were maintained in DMEM (Gibco, Australia) media supplemented […]
# with 10% foetal calf serum and 250 µg/mL G418 as described previously.[32]
# The affinity of all peptides for the CCK2R was evaluated using competitive binding assays […]
# Briefly, 48 hours before the experiment […]
# cells were plated at a density of 300,000 cells per well in 12 well plates. On the day of the […]
# experiment, linear peptides were diluted in DMEM supplemented with 1% foetal calf serum to […]
# DOTA-CP04 was added to each dilution. Cells were washed twice in ice-cold binding buffer […]
# (DMEM supplemented with 1% foetal calf serum) and resuspended in 1 mL of the pre-prepared […]
# peptide mix before being incubated at room temperature for 1 hour. Post-incubation the media […]
# was removed and kept for analysis (unbound fraction) and the cells were washed twice in ice- […]
# cold PBS which was pooled with the unbound fraction. Finally, 1 M NaOH (150µL) was added […]
# to the wells and allowed to incubate for 5 min before lysates were collected (bound fraction).
# A small volume of lysate was kept aside to determine protein concentration using the Pierce® BCA protein assay kit (Thermo Fisher, Australia). All samples were analysed using the Perkin […]
# normalised according to protein concentration. Half maximal inhibitory concentration (IC50) was determined using nonlinear regression calculated using Gr aphPad Prism Software (GraphPad Software, California, USA). […]
# [1] = mouse, in vivo
# Experimental: (§1) In order to assess these promising ligands as potential theranostics, the library of [^68Ga]Ga-DOTA-peptides was evaluated using static small animal PET imaging and quantifying biodistribution studies. This study was performed to investigate tumor uptake as well as the accumulation of radioligands in other organs. Mice bearing A431-CCK2R tumors were imaged at 1- and 2 hours post tracer injection, and tracer biodistribution was evaluated at the 1 hour and 2.5 hour time points to quantify tumor uptake and retention. […]
# (§2) Small Animal PET Imaging and Biodistribution Studies
# (§3) Female NSG mice (age 11-14 weeks) were sourced from Animal Resources Centre, (Canning Vale, Western Australia) and were inoculated subcutaneously on the right flank with 1-3 x 106 […]
# (§4) A431-CCK2R cells in PBS:Matrigel (1:1). […]
# (§5) Mice were assigned to imaging and/or biodistribution groups (tumour volumes: 119-327 mm3).
# (§6) The respective 68Ga labelled tracer (1.63–3.81 MBq, 170µL, 13.7–14.2 pmoles) containing vehicle solution (75µL, DMSO:Tween 80: water, 2:2:6 v/v/v) was then administered to mice intravenously via tail vein injection. Three mice were euthanized for biodistribution 1 hour post injection (n=3) and selected tissues were excised, weighed, and counted using a Capintec (Captus 4000e) gamma counter. Three mice were anaesthetised using 1.5% isoflurane and imaged at 1 hour (n=3) and 2 hours (n=3) with a G8 Small Animal PET/CT scanner (Perkin […]
# (§7) Elmer/Sofie Biosciences). A 10 min static PET scan was acquired, followed immediately by a CT scan (Supplementary Data, pS51–S55). PET images were acquired using the G8 acquisition engine software and reconstructed using a 3D maximal likelihood and expectation maximization (ML-EM) algorithm. PET images were analysed using VivoQuant software, version 3.0 (inviCRO Imaging Services and Software) to quantify maximum standardised uptake value in regions of interest (SUVmax). Background regions for imaging experiments were calculated by quantitating mean standardised uptake value (SUVmean) of the abdomen and gut region. The region of interest was selected due to low uptake in abdomen/gut during imaging. After imaging the 2-hour time point, mice organs were harvested for biodistribution […]
# (§8) For blocking CCK2R binding a solution of N-[(3R)-2,3-Dihydro-1-[2-(2-methylphenyl)-2-oxoethyl]-2-oxo-5-phenyl-1H-1,4-benzodiazepin-3-yl]-N′-(3-methylphenyl)-urea (YM022; Sigma Aldrich) was used. YM022 (75µL of a 1 mg/ml solution constituting DMSO:Tween 80: water, 2:2:6 v/v/v) was added to the respective 68Ga labelled tracer (1.41–3.61 MBq, 100 µL, 13.7–14.2 pmoles) and this mixture ([…]) was administered in three mice intravenously via tail vein injection and organs harvested at 1 hour post injection for biodistribution analysis, as above.
# (§9) All animal experiments were performed with the approval of the Peter MacCallum Cancer Centre Animal Experimentation Ethics Committee and in accordance with the Australian code for the care and use of animals for scientific purposes, 8th Edition, 2013 (AEEC Approval
# [2] = assay type: physicochemical
# Experimental: Lipophilicity, expressed as the octanol-water partition coefficient, constitutes an important property in drug action, influencing both pharmacokinetic and pharmacodynamics processes. The distribution coefficient (LogD7.4) of [^68Ga]Ga-DOTA-peptides was determined by measuring radioactivity distribution in the aqueous phase (phosphate buffer pH7.4) and the organic phase (n-octanol). […]
# To determine the distribution coefficient (logD 7.4), 68Ga radiolabeled peptides [68Ga]Ga-DOTA-GA4, [68Ga]Ga-DOTA-GA7, and [68Ga]Ga-DOTA-GA11–GA13 were diluted to approximately 20 pmol/mL in PBS (pH 7.4) and an equal volume of n-octanol was added. The mixture was vortexed vigorously for 10 cycles of 1 min at room temperature before being centrifuged for 6 min to separate the two phases. Equal volumes from each phase were aliquoted into individual counting tubes and analysed for 1 min using the Perkin Elmer 2480 Wizard2™ gamma counter (PerkinElmer, Massachusetts, USA). The distribution coefficient was calculated using the following equation LogD = […]. […]
# in vivo = conditions: female, NSG, mouse, iv, total radioactivity; for SUV at 1 h / SUV at 2 h: SUVmax
# Experimental: as §1, §2, §3, §4, §5, §6, §7, §8, §9
# [3] = assay type: in vitro ADME, mouse
# Experimental: Metabolic stability is an important determinant of the efficacy of peptide radiopharmaceuticals and their progression as promising theranostic candidates. In vitro, metabolic degradation through hepatic and renal enzymes can be assessed by utilizing liver and kidney tissue homogenates. Radiolabeled peptides [^68Ga]Ga-DOTA-GA4, and D-Ala substituted variants [^68Ga]Ga-DOTA-GA7, [^68Ga]Ga-DOTA-GA11-GA13 were incubated in liver and kidney mouse homogenates, in human serum at 37°C, and in HEPES buffer (pH 7.4) as a negative control. Following a time course experiment, the metabolites were analyzed using HPLC to quantify the % breakdown of the respective parent peptide. […]
# To assess the stability of 68Ga radiolabeled peptides against enzymatic degradation, duplicate samples (750-900 pmol/mL, 2-5MBq) were incubated at 37 ℃ with pooled human serum, 15% […]
# mouse kidney homogenate, 30% mouse liver homogenate or 20 mM HEPES, pH 7.3 (control).
# Human blood was collected, and serum prepared using SSTII advance vacutainer tubes according to the manufacturer’s instructions (Becton Dickinson, New Jersey, USA). Mouse kidney and liver homogenates were prepared by washing the tissues in ice-cold HEPES buffer, pH 7.3 and placing them in pre-chilled tubes containing HEPES buffer and 2.38 mm metal beads (Mo-Bio Laboratories, Hilden, Germany). Tissues were homogenised using the PowerLyzer24 homogeniser (Qiagen, Hilden, Germany) according to the manufacturer’s instructions. 68Ga radiolabeled peptides were then incubated with the various lysates at 37 ℃ and samples were collected at 15, 30, 60 and 90 min. Reactions were terminated by addition of an equal volume of acetonitrile and centrifugation for 2 min at 15,000 rpm. Supernatants were diluted in water before being analysed by HPLC using a Kinetex C18 XB column (5µm
# [4] = 3 mg/kg, Uptake in A431-CCK2R Tumors, 1 hr Blocked
# [5] = Uptake in A431-CCK2R Tumors, 1 hr
SMILES,"tissue uptake at 1 h [1, 4]","tissue uptake at 1 h [1, 5]",tissue uptake at 2.5 h ([1]; Uptake in A431-CCK2R Tumors),tissue uptake at 1 h ([1]; Uptake in Organs: Blood),tissue uptake at 1 h ([1]; Uptake in Organs: Heart),tissue uptake at 1 h ([1]; Uptake in Organs: Kidneys),tissue uptake at 1 h ([1]; Uptake in Organs: Liver),tissue uptake at 1 h ([1]; Uptake in Organs: Lungs),tissue uptake at 1 h ([1]; Uptake in Organs: Muscle),tissue uptake at 1 h ([1]; Uptake in Organs: Spleen),tissue uptake at 1 h ([1]; Uptake in Organs: Stomach),logD [2],tissue to tissue ratio at 1 h (in vivo),SUV at 1 h (in vivo),SUV at 2 h (in vivo),other results
"CCCC[C@@H](C(=O)N[C@@H](CC(=O)O)C(=O)N[C@@H](Cc1cccc2ccccc12)C(N)=O)N(C)C(=O)[C@H](Cc1c[nH]c2ccccc12)NC(=O)CN(C)C(=O)[C@H](Cc1ccc(O)cc1)NC(=O)[C@H](C)NC(=O)[C@@H](CCC(=O)O)NC(=O)[C@@H](CCC(=O)O)NC(=O)[C@@H](CCC(=O)O)NC(=O)[C@@H](CCC(=O)O)NC(=O)[C@@H](CCC(=O)O)NC(=O)[C@H](N)CCC(=O)O [GA1, [D-Glu]6-Ala-Tyr-NMeGly-Trp-NMeNle-Asp-Nal-NH2] (H-[dE][dE][dE][dE][dE][dE]AY[Sar]W[NMeNle]D[1Nal]-NH2)",,,,,,,,,,,,,,,,"affinity to the CCK2R target (CCK2R; previously investigated): sub-nanomolar; IC50 (CCK2R; previously shown, Ga-DOTA-GA1 form, read-out: binding affinity (IC50) against CCK2R): 50 pM; fold decrease in affinity for CCK2R without gallium coordinated DOTA at the N-terminus (human CCK2R): 5 fold"
"CCCC[C@@H](C(=O)N[C@@H](CC(=O)O)C(=O)N(C)[C@@H](Cc1ccccc1)C(N)=O)N(C)C(=O)[C@H](Cc1c[nH]c2ccccc12)NC(=O)CN(C)C(=O)[C@H](Cc1ccc(O)cc1)NC(=O)[C@H](C)NC(=O)[C@@H](CCC(=O)O)NC(=O)[C@@H](CCC(=O)O)NC(=O)[C@@H](CCC(=O)O)NC(=O)[C@@H](C)NC(=O)[C@@H](CCC(=O)O)NC(=O)[C@@H](CCC(=O)O)NC(=O)CN1CCN(CC(=O)O)CCN(CC(=O)O)CCN(CC(=O)O)CC1 [[^68Ga]Ga-DOTA-GA11, metal not drawn] ({DOTA}-[dE][dE][dA][dE][dE][dE]AY[Sar]W[NMeNle]D[NMeF]-NH2)",2.07 ± 0.15 %ID/g,5.6 ± 1.16 %ID/g,5.42 ± 0.7 %ID/g,0.46 ± 0.08 %ID/g,0.27 ± 0.08 %ID/g,7.38 ± 1.54 %ID/g,0.29 ± 0.01 %ID/g,0.59 ± 0.02 %ID/g,0.09 ± 0.02 %ID/g,0.34 ± 0.08 %ID/g,1.04 ± 0.06 %ID/g,-3.56 ± 0.01,14.4 ± 2.23,0.39 SUV,0.34 SUV,metabolites in kidney homogenates [3]: no observable metabolites detected; metabolites in liver homogenates [3]: no observable metabolites detected
"CCCC[C@@H](C(=O)N[C@@H](CC(=O)O)C(=O)N[C@@H](Cc1ccccc1)C(N)=O)N(C)C(=O)[C@H](Cc1c[nH]c2ccccc12)NC(=O)CN(C)C(=O)[C@H](Cc1ccc(O)cc1)NC(=O)[C@H](C)NC(=O)[C@@H](CCC(=O)O)NC(=O)[C@@H](CCC(=O)O)NC(=O)[C@@H](CCC(=O)O)NC(=O)[C@@H](C)NC(=O)[C@@H](CCC(=O)O)NC(=O)[C@@H](CCC(=O)O)NC(=O)CN1CCN(CC(=O)O)CCN(CC(=O)O)CCN(CC(=O)O)CC1 [[^68Ga]Ga-DOTA-GA12, metal not drawn] ({DOTA}-[dE][dE][dA][dE][dE][dE]AY[Sar]W[NMeNle]DF-NH2)",2.53 ± 0.11 %ID/g,6.7 ± 0.69 %ID/g,6.81 ± 1.4 %ID/g,0.29 ± 0.01 %ID/g,0.14 ± 0.01 %ID/g,4.52 ± 0.38 %ID/g,0.19 ± 0.02 %ID/g,0.34 ± 0.04 %ID/g,0.09 ± 0.02 %ID/g,0.25 ± 0.04 %ID/g,1.38 ± 0.08 %ID/g,-4.06 ± 0.14,24.9 ± 4.57,0.5 SUV,0.45 SUV,"Half-life (t1/2) in Kidney Homogenate ([3]; mouse, tissue homogenate): 46.33 min; Half-life (t1/2) in Liver Homogenate ([3]; mouse, tissue homogenate): 64.28 min; half-life ([3]; mouse, tissue homogenate, Half-life (t1/2) in Kidney Homogenate): 46.3 min; half-life ([3]; mouse, tissue homogenate, Half-life (t1/2) in Liver Homogenate): 64.3 min"
